Several values for one entry are separate records, joined by “and”; a condition that tells them apart may be missing. Equal entries are not always repeated.
Target: T1, partially purified rat brain farnesyl protein transferase (FPT) (Rattus norvegicus, UniProt Q02293+Q04631)
T1 construct: partially purified rat brain farnesyl protein transferase (FPT); from tissue; host or cells: rat brain
Assay: FPT IC50, in vitro enzyme assay (inhibition of Ras-CVLS farnesylation)
Assay type: biochemical
Settings: inhibition of Ras-CVLS farnesylation by partially purified rat brain FPT; value is a range stated for a group of compounds
Method: 1. In vitro enzyme assays: FPT IC50 (inhibition of farnesyl protein transferase, in vitro enzyme assay) are determined by the methods disclosed in WO/10515 or WO95/10516.

| Compound | IC50 |
| --- | --- |
| N#Cc1ccc(Cn2cncc2CCNC(=O)[C@H]2CN(Cc3nccs3)CCN2C(=O)NC2CCCCC2)cc1 [Example 8] | 0.18 to 21 nM |
| CC(C)(C)CCN1CCN(C(=O)NC2CCCCC2)[C@@H](C(=O)NCCc2cncn2Cc2ccc(C#N)cc2)C1 [Example 9] | 0.18 to 21 nM |
| N#Cc1ccc(CN2CCN(C(=O)NC3CCCCC3)[C@@H](C(=O)NCCc3cncn3Cc3ccc(C#N)cc3)C2)cc1 [Example 10] | 0.18 to 21 nM |
| N#Cc1ccc(Cn2cncc2CCNC(=O)[C@H]2CN(Cc3ccccc3C#N)CCN2C(=O)NC2CCCCC2)cc1 [Example 11] | 0.18 to 21 nM |
| COc1ccc(CN2CCN(C(=O)NC3CCCCC3)[C@@H](C(=O)NCCc3cncn3Cc3ccc(C#N)cc3)C2)cc1 [Example 12] | 0.18 to 21 nM |
| N#Cc1ccc(Cn2cncc2CCNC(=O)[C@H]2CN(CC3CCCCC3)CCN2C(=O)NC2CCCCC2)cc1 [Example 13] | 0.18 to 21 nM |
| N#Cc1ccc(Cn2cncc2CCNC(=O)[C@H]2CN(Cc3ccc(F)cc3)CCN2C(=O)NC2CCCCC2)cc1 [Example 14] | 0.18 to 21 nM |
| N#Cc1ccc(Cn2cncc2CCNC(=O)[C@H]2CN(Cc3ccc(C(F)(F)F)cc3)CCN2C(=O)NC2CCCCC2)cc1 [Example 15] | 0.18 to 21 nM |
| N#Cc1ccc(Cn2cncc2CCNC(=O)[C@H]2CN(Cc3ccc(Cl)cc3)CCN2C(=O)NC2CCCCC2)cc1 [Example 16] | 0.18 to 21 nM |
| N#Cc1ccc(Cn2cncc2CCNC(=O)[C@H]2CN(Cc3ccc(Br)cc3)CCN2C(=O)NC2CCCCC2)cc1 [Example 17] | 0.18 to 21 nM |
| CC(=O)Nc1ccc(CN2CCN(C(=O)NC3CCCCC3)[C@@H](C(=O)NCCc3cncn3Cc3ccc(C#N)cc3)C2)cc1 [Example 20] | 0.18 to 21 nM |
| N#Cc1ccc(Cn2cncc2CCNC(=O)[C@H]2CN(Cc3cccc4ccccc34)CCN2C(=O)NC2CCCCC2)cc1 [Example 21] | 0.18 to 21 nM |
| Cc1ccc(CN2CCN(C(=O)NC3CCCCC3)[C@@H](C(=O)NCCc3cncn3Cc3ccc(C#N)cc3)C2)cc1 [Example 22] | 0.18 to 21 nM |
| N#Cc1ccc(Cn2cncc2CCNC(=O)[C@H]2CN(Cc3ccc(O)cc3)CCN2C(=O)NC2CCCCC2)cc1 [Example 23] | 0.18 to 21 nM |
| N#Cc1ccc(Cn2cncc2CCNC(=O)[C@H]2CN(Cc3ccc(Cl)cc3Cl)CCN2C(=O)NC2CCCCC2)cc1 [Example 24] | 0.18 to 21 nM |
| N#Cc1ccc(Cn2cncc2CCNC(=O)[C@H]2CN(Cc3cccc(Cl)c3)CCN2C(=O)NC2CCCCC2)cc1 [Example 25] | 0.18 to 21 nM |
| COc1cccc(CN2CCN(C(=O)NC3CCCCC3)[C@@H](C(=O)NCCc3cncn3Cc3ccc(C#N)cc3)C2)c1 [Example 26] | 0.18 to 21 nM |
| COc1ccccc1CN1CCN(C(=O)NC2CCCCC2)[C@@H](C(=O)NCCc2cncn2Cc2ccc(C#N)cc2)C1 [Example 27] | 0.18 to 21 nM |
| O=C(NCCc1cncn1Cc1ccc(Cl)cc1)[C@H]1CN(Cc2ccccc2)CCN1C(=O)NC1CCCCC1 [Example 28C, N4-phenylmethyl-N2-[2-[1-[(4-chlorophenyl)methyl]-1H-imidazol-5-yl]ethyl]-N1-cyclohexyl-1,2(R)-piperazinedicarboxamide] | 0.18 to 21 nM |
| CCC(=O)N1CCN(Cc2ccccc2)C[C@@H]1C(=O)NCCc1cncn1Cc1ccc(C#N)cc1 [Example 28E, N-[2-[1-[(4-cyanophenyl)methyl]-1H-imidazol-5-yl]ethyl]-1-(1-oxopropyl)-4-phenyl(methyl)-2(R)-piperazinedicarboxamide] | 0.18 to 21 nM |
| CCCC(=O)N1CCN(Cc2ccccc2)C[C@@H]1C(=O)NCCc1cncn1Cc1ccc(C#N)cc1 [Example 28F, N-[2-[1-[(4-cyanophenyl)methyl]-1H-imidazol-5-yl]ethyl]-1-(1-oxobutyl)-4-phenyl(methyl)-2(R)-piperazinedicarboxamide] | 0.18 to 21 nM |
| N#Cc1ccc(Cn2cncc2CCNC(=O)[C@H]2CN(Cc3ccccc3)CCN2C(=O)c2ccccc2)cc1 [Example 28G, 1-benzoyl-N-[2-[1-[(4-cyanophenyl)methyl]-1H-imidazol-5-yl]ethyl]-4-phenylmethyl-2(R)-piperazinedicarboxamide] | 0.18 to 21 nM |

| Compound | IC50 |
| --- | --- |
| N#Cc1ccc(Cn2cncc2CCNC(=O)[C@H]2CN(Cc3ccccc3)CCN2C(=O)Cc2ccccc2)cc1 [Example 28I, N-[2-[1-[(4-cyanophenyl)methyl]-1H-imidazol-5-yl]ethyl]-1-phenylacetyl-4-(phenylmethyl)-2(R)-piperazinedicarboxamide] | 0.18 to 21 nM |
| N#Cc1ccc(Cn2cncc2CCNC(=O)[C@H]2CN(Cc3ccccc3)CCN2S(=O)(=O)Cc2ccccc2)cc1 [Example 28M, N-[2-[1-[(4-cyanophenyl)methyl]-1H-imidazol-5-yl]ethyl]-1-[(phenylmethyl)sulfonyl]-4-(phenylmethyl)-2(R)-piperazinecarboxamide] | 0.18 to 21 nM |
| CC(C)(C)NC(=O)N1CCN(Cc2ccccc2)C[C@@H]1C(=O)NCCc1cncn1Cc1ccc(C#N)cc1 [Example 28O, N2-[2-[1-[(4-cyanophenyl)methyl]-1H-imidazol-5-yl]ethyl]-N1-(1,1-dimethylethyl)-4-(phenylmethyl)-1,2(R)-piperazinedicarboxamide] | 0.18 to 21 nM and 0.18 to 1.5 nM |
| N#Cc1ccc(Cn2cncc2CCNC(=O)[C@H]2CN(Cc3ccccc3)CCN2C(=O)Cc2cc[n+]([O-])cc2)cc1 [Example 28P, N-[2-[1-[(4-cyanophenyl)methyl]-1H-imidazol-5-yl]ethyl]-4-(phenylmethyl)-1-(4-pyridinylacetyl)-2(R)-piperazinecarboxamide N1-oxide] | 0.18 to 21 nM |
| N#Cc1ccc(Cn2cncc2CCNC(=O)[C@H]2CN(Cc3ccccc3)CCN2C(=O)CC2CCN(C(N)=O)CC2)cc1 [Example 28Q, 1-[[1-(aminocarbonyl)-4-piperidinyl]acetyl]-N-[2-[1-[(4-cyanophenyl)methyl]-1H-imidazol-5-yl]ethyl]-4-(phenylmethyl)-2(R)-piperazinecarboxamide] | 0.18 to 21 nM |
| N#Cc1ccc(Cn2cncc2CCNC(=O)[C@H]2CN(S(=O)(=O)c3ccccc3)CCN2C(=O)NC2CCCCC2)cc1 [Example 28R, N2-[2-[1-[(4-Cyanophenyl)methyl]-1H-imidazol-5-yl]ethyl]-N1-cyclohexyl-4-(phenylsulfonyl)-1,2(R)-piperazinedicarboxamide] | 0.18 to 21 nM |
| O=C([C@H]1CN(Cc2ccccc2)CCN1C(=O)NC1CCCCC1)N(CCCn1ccnc1)Cc1ccccc1 [Example 28S, N1-cyclohexyl-N2-[3-(1H-imidazol-1-yl)propyl]-N2,4-bis(phenylmethyl)-1,2(R)-piperazinedicarboxamide] | 0.18 to 21 nM |
| N#Cc1ccc(Cn2cncc2CCNC(=O)[C@H]2CN(Cc3ccccc3Cl)CCN2C(=O)NC2CCCCC2)cc1 [Example 28] | 0.18 to 21 nM |
| N#Cc1ccc(Cn2cncc2CCNC(=O)C2CN(CCc3ccccc3)CCN2C(=O)NC2CCCCC2)cc1 (stereo not shown) [Example 29] | 0.18 to 21 nM |
| CS(=O)(=O)N1CCN(CCc2ccccc2)CC1C(=O)NCCc1cncn1Cc1ccc(C#N)cc1 (stereo not shown) [Example 31] | 0.18 to 21 nM |
| N#Cc1ccc(Cn2cncc2CCNC(=O)C2CN(CCC3CCCCC3)CCN2C(=O)NC2CCCCC2)cc1 (stereo not shown) [Example 32] | 0.18 to 21 nM |
| CCCCCN1CCN(S(C)(=O)=O)C(C(=O)NCCc2cncn2Cc2ccc(C#N)cc2)C1 (stereo not shown) [Example 34] | 0.18 to 21 nM |
| O=C(NCCc1cncn1Cc1ccc(Cl)c(Cl)c1)C1CN(CCC2CCCCC2)CCN1C(=O)NC1CCCCC1 (stereo not shown) [Example 36] | 0.18 to 21 nM |
| N#Cc1ccc(Cn2cncc2CCNC(=O)C2CN(C(=O)c3ccncc3)CCN2C(=O)NC2CCCCC2)cc1 (stereo not shown) [Example 42] | 0.18 to 21 nM |
| CCCCNC(=O)N1CCN(C(=O)NC2CCCCC2)C(C(=O)NCCc2cncn2Cc2ccc(C#N)cc2)C1 (stereo not shown) [Example 47] | 0.18 to 21 nM |
| O=C(NCCc1cncn1Cc1ccc(C(F)(F)F)cc1)C1CN(CCc2cccc(Cl)c2)CCN1C(=O)NC1CCCCC1 (stereo not shown) [Example 53] | 0.18 to 21 nM |
| N#Cc1ccc(Cn2cncc2CCNC(=O)C2CN(CCc3cccc(Cl)c3)CCN2C(=O)NC2CCCCC2)cc1 (stereo not shown) [Example 54] | 0.18 to 21 nM and 0.18 to 1.5 nM |
| Cc1ccc(CCN2CCN(C(=O)NC3CCCCC3)C(C(=O)NCCc3cncn3Cc3ccc(C#N)cc3)C2)cc1O (stereo not shown) [Example 55] | 0.18 to 21 nM and 0.18 to 1.5 nM |
| CC(C)(C)CCN1CCN(C(=O)NC2CCCCC2)C(C(=O)NCCc2cncn2Cc2ccc(Cl)c(Cl)c2)C1 (stereo not shown) [Example 56] | 0.18 to 21 nM |
| COc1cccc(CN2CCN(C(=O)NC3CCCCC3)C(C(=O)NCCc3cncn3Cc3ccc(Cl)c(Cl)c3)C2)c1 (stereo not shown) [Example 58] | 0.18 to 21 nM |
| Cn1cncc1CCNC(=O)C1CN(CCC2CCCCC2)CCN1C(=O)NC1CCCCC1 (stereo not shown) [Example 61] | 0.18 to 21 nM |
| O=C(NCCc1cncn1Cc1ccccc1)[C@H]1CN(CCC2CCCCC2)CCN1C(=O)NC1CCCCC1 [Example 64] | 0.18 to 21 nM |

Tested on: not given
Assay: not given
Settings: not given

| Compound | melting point |
| --- | --- |
| CC(C)(C)OC(=O)N1CCN(C(=O)NC2CCCCC2)[C@@H](C(=O)NCCc2cncn2Cc2ccc(F)cc2)C1 [Example 2] | 72 °C (dec.) |
| O=C(NCCc1cncn1Cc1ccc(Cl)cc1)[C@H]1CN(Cc2ccccc2)CCN1C(=O)NC1CCCCC1 [Example 28C, N4-phenylmethyl-N2-[2-[1-[(4-chlorophenyl)methyl]-1H-imidazol-5-yl]ethyl]-N1-cyclohexyl-1,2(R)-piperazinedicarboxamide] | 116.2 °C |
| O=C(NCCc1cncn1CCc1ccccc1)[C@H]1CN(Cc2ccccc2)CCN1C(=O)NC1CCCCC1 [Example 28D, N4-phenylmethyl-N2-[2-[1-(phenylethyl)-1H-imidazol-5-yl]ethyl]-N1-cyclohexyl-1,2(R)-piperazinedicarboxamide] | 64.4 °C |
| N#Cc1ccc(Cn2cncc2CCNC(=O)[C@H]2CN(Cc3ccccc3)CCN2C(=O)c2ccccc2)cc1 [Example 28G, 1-benzoyl-N-[2-[1-[(4-cyanophenyl)methyl]-1H-imidazol-5-yl]ethyl]-4-phenylmethyl-2(R)-piperazinedicarboxamide] | 115.3 to 170.3 °C |
| N#Cc1ccc(Cn2cncc2CCNC(=O)[C@H]2CN(Cc3ccccc3)CCN2C(=O)Cc2ccccc2)cc1 [Example 28I, N-[2-[1-[(4-cyanophenyl)methyl]-1H-imidazol-5-yl]ethyl]-1-phenylacetyl-4-(phenylmethyl)-2(R)-piperazinedicarboxamide] | 85.6 to 96.7 °C |
| CCS(=O)(=O)N1CCN(Cc2ccccc2)C[C@@H]1C(=O)NCCc1cncn1Cc1ccc(C#N)cc1 [Example 28K, N-[2-[1-[(4-cyanophenyl)methyl]-1H-imidazol-5-yl]ethyl]-1-(ethylsulfonyl)-4-(phenylmethyl)-2(R)-piperazinecarboxamide] | 97.3 to 150.2 °C |
| CC(C)(C)NC(=O)N1CCN(Cc2ccccc2)C[C@@H]1C(=O)NCCc1cncn1Cc1ccc(C#N)cc1 [Example 28O, N2-[2-[1-[(4-cyanophenyl)methyl]-1H-imidazol-5-yl]ethyl]-N1-(1,1-dimethylethyl)-4-(phenylmethyl)-1,2(R)-piperazinedicarboxamide] | 97.8 °C |
| N#Cc1ccc(Cn2cncc2CCNC(=O)[C@H]2CN(Cc3ccccc3)CCN2C(=O)CC2CCN(C(N)=O)CC2)cc1 [Example 28Q, 1-[[1-(aminocarbonyl)-4-piperidinyl]acetyl]-N-[2-[1-[(4-cyanophenyl)methyl]-1H-imidazol-5-yl]ethyl]-4-(phenylmethyl)-2(R)-piperazinecarboxamide] | 118.5 °C |
| N#Cc1ccc(Cn2cncc2CCNC(=O)[C@H]2CN(S(=O)(=O)c3ccccc3)CCN2C(=O)NC2CCCCC2)cc1 [Example 28R, N2-[2-[1-[(4-Cyanophenyl)methyl]-1H-imidazol-5-yl]ethyl]-N1-cyclohexyl-4-(phenylsulfonyl)-1,2(R)-piperazinedicarboxamide] | 143.6 °C |
| O=C([C@H]1CN(Cc2ccccc2)CCN1C(=O)NC1CCCCC1)N(CCCn1ccnc1)Cc1ccccc1 [Example 28S, N1-cyclohexyl-N2-[3-(1H-imidazol-1-yl)propyl]-N2,4-bis(phenylmethyl)-1,2(R)-piperazinedicarboxamide] | 89.1 °C |
| CC(C)(C)OC(=O)N1CCN(C(=O)OCc2ccccc2)[C@@H](C(=O)NCCCn2ccnc2C(N)=O)C1 [Example 28Z] | 71 to 75 °C |

Reference: US6432959B1, “Inhibitors of farnesyl-protein transferase” (Schering Corporation, priority 1998, dated 2002)
